# Assay results from ChEMBL document CHEMBL5038665, “Identification of the Benzoimidazole Compound as a Selective FLT3 Inhibitor by Cell-Based High-Throughput Screening of a Diversity Library” (J Med Chem, 2022).
# The source made the active and inactive calls. No cut-off for these calls is given here.
# Legend:
# [1] = Induction of apoptosis in mouse BaF3 cells assessed as survival population at 0.1 uM measured after 48 hrs by Annexin V-FITC/propidium iodide staining based flow cytometry(reference value: 96.35 %); type: toxicity, cell-based; conditions: read-out: Activity
# [2] = Oral bioavailability in 12 hrs fasted Sprague-Dawley rat at 15 mg/kg by LC-MS analysis; type: ADME, organism-based; conditions: in vivo
# [3] = AUC (0-t) in 12 hrs fasted Sprague-Dawley rat at 15 mg/kg, po measured upto 24 hrs by LC-MS analysis; type: ADME, organism-based; parameters: route oral, dose 15 mg/kg, time <=24; conditions: in vivo
# [4] = Half life in 12 hrs fasted Sprague-Dawley rat at 2 mg/kg, iv measured upto 24 hrs by LC-MS analysis; type: ADME, organism-based; conditions: in vivo
# [5] = Cmax in 12 hrs fasted Sprague-Dawley rat at 15 mg/kg, po measured upto 24 hrs by LC-MS analysis; type: ADME, organism-based; parameters: route oral, dose 15 mg/kg, time <=24; conditions: in vivo
# [6] = Antiproliferative activity against mouse BaF3 cells expressing wild type FLT3 assessed as reduction in cell viability measured after 72 hrs by MTS assay; type: toxicity, cell-based
# [7] = Antiproliferative activity against mouse Ba/F3 FLT3-ITD cells assessed as reduction in cell viability measured after 72 hrs by MTS assay; type: functional, cell-based
# [8] = target: Serine/threonine-protein kinase B-raf (Homo sapiens, UniProt P15056); experiment: Inhibition of BRAF (unknown origin)
# [9] = target: Fibroblast growth factor receptor 1 (Homo sapiens, UniProt P11362); experiment: Inhibition of FGFR1 (unknown origin)
# [10] = target: Receptor-type tyrosine-protein kinase FLT3 (Homo sapiens, UniProt P36888, ITD); experiment: Inhibition of FLT3-ITD mutant (unknown origin)
# [11] = Induction of apoptosis in mouse Ba/F3 FLT3-ITD cells assessed as survival population at 0.1 uM measured after 48 hrs by Annexin V-FITC/propidium iodide staining based flow cytometry(reference value: 93.99 %); type: functional
# [12] = Induction of apoptosis in mouse Ba/F3 FLT3-ITD cells assessed as survival population at 0.5 uM measured after 48 hrs by Annexin V-FITC/propidium iodide staining based flow cytometry(reference value: 93.99 %); type: functional
# MOLM-13 [13] = experiment: Induction of apoptosis in human MOLM-13 cells assessed as survival population at 0.1 uM measured after 48 hrs by Annexin V-FITC/propidium iodide staining based flow cytometry(reference value: 97.35 %); type: functional
# MOLM-13 [14] = experiment: Induction of apoptosis in human MOLM-13 cells assessed as survival population at 1 uM measured after 48 hrs by Annexin V-FITC/propidium iodide staining based flow cytometry(reference value: 97.35 %); type: functional
# MV4-11 [15] = experiment: Induction of apoptosis in human MV4-11 cells assessed as survival population at 0.5 uM measured after 48 hrs by Annexin V-FITC/propidium iodide staining based flow cytometry(reference value: 98.01 %); type: functional
# MV4-11 [16] = experiment: Induction of apoptosis in human MV4-11 cells assessed as survival population at 1 uM measured after 48 hrs by Annexin V-FITC/propidium iodide staining based flow cytometry(reference value: 98.01 %); type: functional
# [17] = target: Receptor-type tyrosine-protein kinase FLT3 (Homo sapiens) (UniProt P36888); experiment: Inhibition of FLT3 phosphorylation in human MV4-11 cells assessed as reduction in phosphorylated FLT3 level measured after 12 hrs by western blot analysis; type: cell-based
# [18] = target: T1, Receptor-type tyrosine-protein kinase FLT3 (Mus musculus) (UniProt Q00342); experiment: Inhibition of FLT3 phosphorylation in mouse Ba/F3 FLT3-ITD cells assessed as reduction in phosphorylated FLT3 level measured after 12 hrs by western blot analysis; type: cell-based
# T1 sequence (whole entry): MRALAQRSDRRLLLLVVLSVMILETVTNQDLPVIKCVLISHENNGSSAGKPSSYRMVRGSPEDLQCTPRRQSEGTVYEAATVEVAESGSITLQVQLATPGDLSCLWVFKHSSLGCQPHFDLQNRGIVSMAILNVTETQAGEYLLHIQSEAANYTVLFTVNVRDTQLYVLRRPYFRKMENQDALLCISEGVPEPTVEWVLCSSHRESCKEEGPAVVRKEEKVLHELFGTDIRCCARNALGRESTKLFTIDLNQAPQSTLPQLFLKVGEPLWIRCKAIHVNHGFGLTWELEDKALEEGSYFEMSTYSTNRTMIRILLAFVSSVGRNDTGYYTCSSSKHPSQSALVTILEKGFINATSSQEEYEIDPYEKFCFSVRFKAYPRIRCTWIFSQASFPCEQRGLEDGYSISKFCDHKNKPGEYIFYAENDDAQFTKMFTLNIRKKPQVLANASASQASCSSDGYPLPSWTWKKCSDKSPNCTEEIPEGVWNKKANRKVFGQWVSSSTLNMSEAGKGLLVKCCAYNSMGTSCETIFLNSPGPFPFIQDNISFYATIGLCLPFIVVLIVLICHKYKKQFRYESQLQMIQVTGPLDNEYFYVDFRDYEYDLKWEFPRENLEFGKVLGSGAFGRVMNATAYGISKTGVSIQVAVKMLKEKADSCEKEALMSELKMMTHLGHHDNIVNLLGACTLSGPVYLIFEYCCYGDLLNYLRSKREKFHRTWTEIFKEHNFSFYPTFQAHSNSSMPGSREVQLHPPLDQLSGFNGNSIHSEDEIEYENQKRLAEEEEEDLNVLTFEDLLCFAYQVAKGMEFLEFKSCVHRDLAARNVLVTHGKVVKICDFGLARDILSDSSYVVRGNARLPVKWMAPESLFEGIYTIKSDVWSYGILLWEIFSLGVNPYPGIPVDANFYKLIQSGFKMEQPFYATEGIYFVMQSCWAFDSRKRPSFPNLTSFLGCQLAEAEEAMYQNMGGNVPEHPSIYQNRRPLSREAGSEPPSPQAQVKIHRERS
# [19] = Toxicity in Balb/c mouse implanted with mouse Ba/F3 FLT3-ITD cells assessed as inflammatory cell infiltration in spleen at 30 to 100 mg/kg, po administered for 14 days; type: organism-based, BaF3; conditions: in vivo, 336 h, time 14 day
# [20] = Toxicity in Balb/c mouse implanted with mouse Ba/F3 FLT3-ITD cells assessed as body weight loss at 30 to 100 mg/kg, po administered for 14 days; type: organism-based, BaF3; conditions: in vivo, 336 h, time 14 day
# [21] = target: Receptor-type tyrosine-protein kinase FLT3 (Homo sapiens) (UniProt P36888); experiment: Inhibition of FLT3-mediated signalling pathway in human MV4-11 cells assessed as inhibition of STAT5 phosphorylation at 50 nM by western blot analysis; type: cell-based
# [22] = target: T1, Receptor-type tyrosine-protein kinase FLT3 (Mus musculus); experiment: Inhibition of FLT3-mediated signalling pathway in mouse Ba/F3 FLT3-ITD cells assessed as inhibition of STAT5 phosphorylation at 1 to 900 nM measured after 12 hrs by western blot analysis; type: cell-based; conditions: dose 1-900 nM
# MV4-11 [23] = experiment: Antitumor activity against human MV4-11 cells xenografted in Balb/c mouse assessed as reduction in tumor weight at 100 mg/kg, po administered for 28 days; type: functional, organism-based; conditions: time 28.0 day
# [24] = Antitumor activity against mouse Ba/F3 FLT3-ITD cells implanted in Balb/c mouse assessed as increase in survival time at 30 mg/kg, po administered every 24 hrs (Rvb=14 days); type: functional
# [25] = Antitumor activity against mouse Ba/F3 FLT3-ITD cells implanted in Balb/c mouse assessed as increase in survival time at 60 mg/kg, po administered every 24 hrs (Rvb=14 days); type: functional
# Sequence of Receptor-type tyrosine-protein kinase FLT3 (Homo sapiens) (P36888 whole entry): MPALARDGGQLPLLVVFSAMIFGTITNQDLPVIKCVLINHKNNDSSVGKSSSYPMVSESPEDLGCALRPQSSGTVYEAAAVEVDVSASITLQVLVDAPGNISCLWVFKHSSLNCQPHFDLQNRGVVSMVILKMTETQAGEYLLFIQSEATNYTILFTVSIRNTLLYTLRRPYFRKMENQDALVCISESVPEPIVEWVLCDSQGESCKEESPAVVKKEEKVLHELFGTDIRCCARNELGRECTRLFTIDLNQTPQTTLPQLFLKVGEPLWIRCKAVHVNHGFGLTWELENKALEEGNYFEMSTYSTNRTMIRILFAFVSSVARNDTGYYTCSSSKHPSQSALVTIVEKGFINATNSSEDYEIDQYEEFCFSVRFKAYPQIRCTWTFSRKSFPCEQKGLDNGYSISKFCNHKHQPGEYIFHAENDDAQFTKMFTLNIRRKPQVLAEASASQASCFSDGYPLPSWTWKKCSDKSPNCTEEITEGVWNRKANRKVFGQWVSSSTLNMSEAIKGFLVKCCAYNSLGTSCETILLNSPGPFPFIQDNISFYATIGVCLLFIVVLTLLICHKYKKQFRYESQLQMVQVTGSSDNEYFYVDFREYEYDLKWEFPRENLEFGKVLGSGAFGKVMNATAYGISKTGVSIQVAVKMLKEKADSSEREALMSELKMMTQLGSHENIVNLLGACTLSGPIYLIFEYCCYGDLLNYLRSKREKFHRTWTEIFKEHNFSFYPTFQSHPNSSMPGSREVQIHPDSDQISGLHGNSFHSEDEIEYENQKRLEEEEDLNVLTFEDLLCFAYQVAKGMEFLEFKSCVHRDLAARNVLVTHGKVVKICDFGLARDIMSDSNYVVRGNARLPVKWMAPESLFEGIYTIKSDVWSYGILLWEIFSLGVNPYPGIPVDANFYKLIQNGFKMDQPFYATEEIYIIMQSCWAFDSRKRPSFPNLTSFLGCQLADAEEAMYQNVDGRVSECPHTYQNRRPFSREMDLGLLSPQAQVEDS
# Sequence of Fibroblast growth factor receptor 1 (P11362 whole entry): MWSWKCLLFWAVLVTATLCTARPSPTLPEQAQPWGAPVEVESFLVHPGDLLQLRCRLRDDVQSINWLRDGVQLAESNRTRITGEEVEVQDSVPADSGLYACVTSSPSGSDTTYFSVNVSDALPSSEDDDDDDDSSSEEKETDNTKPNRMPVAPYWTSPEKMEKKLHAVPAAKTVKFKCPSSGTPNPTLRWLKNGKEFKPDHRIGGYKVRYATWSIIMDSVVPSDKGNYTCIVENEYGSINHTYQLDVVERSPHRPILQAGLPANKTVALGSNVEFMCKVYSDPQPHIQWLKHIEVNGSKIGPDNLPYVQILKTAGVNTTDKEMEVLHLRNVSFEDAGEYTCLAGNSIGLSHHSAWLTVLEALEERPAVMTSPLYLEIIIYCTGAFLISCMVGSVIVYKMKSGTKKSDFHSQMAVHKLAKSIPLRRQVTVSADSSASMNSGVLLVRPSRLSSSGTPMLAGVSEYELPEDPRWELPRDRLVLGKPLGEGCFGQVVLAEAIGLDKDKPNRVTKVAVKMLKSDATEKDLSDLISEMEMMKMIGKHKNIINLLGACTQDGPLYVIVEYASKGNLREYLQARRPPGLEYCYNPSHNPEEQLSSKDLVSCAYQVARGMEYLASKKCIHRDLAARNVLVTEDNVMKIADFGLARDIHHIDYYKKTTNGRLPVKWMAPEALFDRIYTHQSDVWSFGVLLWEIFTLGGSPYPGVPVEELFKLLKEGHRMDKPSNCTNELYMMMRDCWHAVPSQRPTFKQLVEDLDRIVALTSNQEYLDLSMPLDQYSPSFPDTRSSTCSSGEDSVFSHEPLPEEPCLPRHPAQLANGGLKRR
# Sequence of Serine/threonine-protein kinase B-raf (P15056 whole entry): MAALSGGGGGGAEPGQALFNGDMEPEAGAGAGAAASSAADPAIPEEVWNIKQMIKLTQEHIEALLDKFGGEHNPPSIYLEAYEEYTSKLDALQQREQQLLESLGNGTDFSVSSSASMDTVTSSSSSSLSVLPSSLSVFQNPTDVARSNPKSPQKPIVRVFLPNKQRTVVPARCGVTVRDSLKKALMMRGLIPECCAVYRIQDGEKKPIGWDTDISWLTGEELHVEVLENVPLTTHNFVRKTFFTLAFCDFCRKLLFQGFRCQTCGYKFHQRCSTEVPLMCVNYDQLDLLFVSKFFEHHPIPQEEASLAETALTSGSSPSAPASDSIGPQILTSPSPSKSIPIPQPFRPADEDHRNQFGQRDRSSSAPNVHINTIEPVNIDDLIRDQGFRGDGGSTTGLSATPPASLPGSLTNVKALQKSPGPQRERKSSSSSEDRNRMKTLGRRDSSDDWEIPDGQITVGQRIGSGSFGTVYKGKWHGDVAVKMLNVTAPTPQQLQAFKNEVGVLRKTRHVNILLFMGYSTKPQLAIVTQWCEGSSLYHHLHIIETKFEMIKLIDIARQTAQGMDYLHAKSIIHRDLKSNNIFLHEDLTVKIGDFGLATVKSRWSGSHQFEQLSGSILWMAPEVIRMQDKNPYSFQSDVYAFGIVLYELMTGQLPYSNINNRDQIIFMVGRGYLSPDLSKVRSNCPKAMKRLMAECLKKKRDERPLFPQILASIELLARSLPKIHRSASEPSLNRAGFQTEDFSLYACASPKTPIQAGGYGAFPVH
# Sequence of Receptor-type tyrosine-protein kinase FLT3 (P36888 whole entry, looked up, change not shown): as the sequence (P36888 whole entry) above
smiles,measurement,setting,value
COc1cc(CNc2ccc3c(c2)ncn3-c2ccccc2)ccc1OCCO,"viability at 48 h, 0.1 µM",[1],98.3%
same,bioavailability,[2],48.2%
same,AUC(0-t) at 24 h,[3],2890 ng·h/mL
same,half-life,[4],18.6 min
same,Cmax,[5],440 ng/mL
same,IC50 at 72 h,[6],> 0.4 µM
same,IC50,[7],0.0754 µM
same,IC50,[8],> 1 µM
same,IC50,[9],> 1 µM
same,IC50,[10],0.07 µM
same,Activity,[11],78.45%
same,Activity,[12],47.99%
same,Activity,MOLM-13 [13],83.61%
same,Activity,MOLM-13 [14],65.52%
same,Activity,MV4-11 [15],78.6%
same,Activity,MV4-11 [16],68.54%
same,inhibition,[17],Active
same,inhibition,[18],Dose-Dependent Effect
same,Activity,[19],Non-Toxic
same,Activity,[20],Non-Toxic
same,inhibition,[21],Active
same,inhibition,[22],Active
same,Activity,MV4-11 [23],Active
same,Time,[24],18 days
same,Time,[25],22 days
